Data reported in US20260042764A1, “COMPOSITIONS AND METHODS FOR INHIBITION OF KRAS” (TheRas, Inc., priority 2022, published 2026).

Assays:
SW620 cells (KRAS G12V) = assay: Cell-based pERK HTRF assay in SW620 cell (Biological Example 4)
Outline: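 SW620 cells were treated for 4 h with compound in a 9-point half-log series from 1 μM top (0.25% DMSO), then lysed. Phospho-ERK was detected by HTRF with d2 and Eu cryptate antibodies after 4–24 h at room temperature, read at 615 nm emission.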

[1] = target: T1, Avi-KRAS G12R (1-169) GppNHp/RAF1 RBD-3xFLAG (52-151) (Homo sapiens, UniProt P01116, G12R); assay: Raf1-KRAS G12R-GppNHP disruption HTRF assay (Biological Example 1); assay type: binding
T1 construct: Avi-KRAS G12R (1-169)
Outline: (§1)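 Measured with a KRAS/RAF1 HTRF assay at pH 7.5 in 10% DMSO, with two 1 h room-temperature incubations with shaking.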

[2] = target: T2, Avi-KRAS G12V (2-169) GTP/RAF1 RBD-3xFLAG (51-131) (Homo sapiens, UniProt P01116, G12V); assay: Raf1-KRAS G12V-GTP disruption HTRF assay (Biological Example 3); assay type: binding; conditions: KRAS G12V, GTP-loaded
T2 construct: Avi-KRAS G12V (2-169)
Outline: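 Each KRAS-GTP/RAF1 RBD complex at 50 nM, with 75 nM 3xFLAG-RAF1 RBD (51-131)-Avi, in 50 mM Tris pH 7.5, 100 mM NaCl, 5 mM MgCl2, 0.1% BSA, 0.01% Tween 20, 10% DMSO. Compounds titrated from 30 μM, 10-point 3x series; 1 h at room temperature with shaking. HTRF read, activity as percent of DMSO.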

[3] = target: T3, Avi-KRAS WT (1-169) GppNHp/RAF1 RBD-3xFLAG (52-151) (Homo sapiens, UniProt P01116); assay: Raf1-KRAS WT-GppNHP disruption HTRF assay (Biological Example 1); assay type: binding
T3 construct: Avi-KRAS WT (1-169)
Outline: as §1

[4] = target: T4, Avi-KRAS G12V (1-169) GppNHp/RAF1 RBD-3xFLAG (52-151) (Homo sapiens, UniProt P01116, G12V); assay: Raf1-KRAS G12V-GppNHP disruption HTRF assay (Biological Example 1); assay type: binding
T4 construct: Avi-KRAS G12V (1-169)
Outline: as §1

[5] = target: T5, Avi-KRAS G12D (1-169) GppNHp/RAF1 RBD-3xFLAG (52-151) (Homo sapiens, UniProt P01116, G12D); assay: Raf1-KRAS G12D-GppNHP disruption HTRF assay (Biological Example 1); assay type: binding
T5 construct: Avi-KRAS G12D (1-169)
Outline: as §1

[6] = Homo sapiens, SW-620, SW620 (KRAS G12V) cells
[7] = Homo sapiens, SW-620, SW620 (KRAS G12V) cells, pERK HTRF, class symbols
[8] = KRAS G12R, GppNHp-loaded, class symbols
[9] = KRAS WT, GppNHp-loaded, class symbols
[10] = KRAS G12V, GppNHp-loaded, class symbols
[11] = KRAS G12D, GppNHp-loaded, class symbols
[12] = Homo sapiens, SW-620, SW620 (KRAS G12V) cells, pERK HTRF
[13] = KRAS G12R, GppNHp-loaded, Table 11
[14] = KRAS WT, GppNHp-loaded, Table 11
[15] = KRAS G12V, GppNHp-loaded, Table 11
[16] = KRAS G12D, GppNHp-loaded, Table 11
[17] = SW620 (KRAS G12V) cells, pERK HTRF

T5 sequence (P01116 1-169 isoform P01116-2 G12D): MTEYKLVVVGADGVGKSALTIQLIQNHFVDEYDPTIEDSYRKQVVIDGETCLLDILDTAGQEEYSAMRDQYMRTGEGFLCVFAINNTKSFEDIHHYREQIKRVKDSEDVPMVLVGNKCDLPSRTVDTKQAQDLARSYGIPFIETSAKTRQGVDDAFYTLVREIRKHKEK
T4 sequence (P01116 1-169 isoform P01116-2 G12V): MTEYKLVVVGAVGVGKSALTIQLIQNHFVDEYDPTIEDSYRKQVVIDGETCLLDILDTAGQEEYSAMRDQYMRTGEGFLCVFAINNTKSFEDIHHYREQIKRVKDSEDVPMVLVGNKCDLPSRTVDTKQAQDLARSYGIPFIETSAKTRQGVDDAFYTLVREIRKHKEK
T3 sequence (P01116 1-169 isoform P01116-2): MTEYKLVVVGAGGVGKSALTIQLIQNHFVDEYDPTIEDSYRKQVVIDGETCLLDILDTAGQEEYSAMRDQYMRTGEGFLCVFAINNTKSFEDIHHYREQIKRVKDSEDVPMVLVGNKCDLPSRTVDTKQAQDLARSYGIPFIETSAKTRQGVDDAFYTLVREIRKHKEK
T1 sequence (P01116 1-169 isoform P01116-2 G12R): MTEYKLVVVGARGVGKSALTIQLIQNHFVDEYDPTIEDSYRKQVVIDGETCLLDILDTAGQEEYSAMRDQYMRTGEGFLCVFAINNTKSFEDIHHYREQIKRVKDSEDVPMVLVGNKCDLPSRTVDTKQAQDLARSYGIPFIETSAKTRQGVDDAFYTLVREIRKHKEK
T2 sequence (P01116 2-169 isoform P01116-2 G12V): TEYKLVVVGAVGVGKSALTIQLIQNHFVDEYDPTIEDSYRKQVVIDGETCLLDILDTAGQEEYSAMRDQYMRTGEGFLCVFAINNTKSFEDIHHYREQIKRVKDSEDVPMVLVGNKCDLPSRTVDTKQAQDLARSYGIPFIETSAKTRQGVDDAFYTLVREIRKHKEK

Structure (SMILES) | IC50 (SW620 cells (KRAS G12V); [6]) [nM] | IC50 (SW620 cells (KRAS G12V); [7]) [nM] | IC50 [1, 8] [nM] | IC50 [2] [nM] | IC50 [3, 9] [nM] | IC50 [4, 10] [nM] | IC50 [5, 11] [nM] | IC50 (SW620 cells (KRAS G12V); [12]) [nM] | IC50 [1, 13] [nM] | IC50 [3, 14] [nM] | IC50 [4, 15] [nM] | IC50 [5, 16] [nM] | IC50 (SW620 cells (KRAS G12V); [17]) [nM] | IC50 ([1]; KRAS G12R-GppNHp/RAF1 RBD HTRF) [nM] | IC50 ([3]; KRAS WT-GppNHp/RAF1 RBD HTRF) [nM] | IC50 ([4]; KRAS G12V-GppNHp/RAF1 RBD HTRF) [nM] | IC50 ([5]; KRAS G12D-GppNHp/RAF1 RBD HTRF) [nM] | IC50 (SW620 cells (KRAS G12V); SW620 (KRAS G12V) cells) [nM]
CCN(c1nc(OC[C@@]23CCCN2C[C@H](F)C3)nc2c(F)c(-c3ccc(F)c4sc(N)c(C#N)c34)c(C(F)(F)F)cc12)[C@H]1CC(=O)N(CC(F)F)C1 (atropisomer, axis not shown) [Compound 613] | < 100 | < 100 | 100 to 1000 | ≤ 100 | 100 to 1000 | 100 to 1000 | 100 to 1000 |  |  |  |  |  |  |  |  |  |  | 
CCN(c1nc(OC[C@@]23CCCN2C[C@H](F)C3)nc2c(F)c(-c3ccc(F)c4sc(N)c(C#N)c34)c(C(F)(F)F)cc12)[C@@H]1CCN(C(C)=O)C1 [Compound 268] | < 100 |  |  | 100 to 1000 |  |  |  | < 100 | < 100 | < 100 | 100 to 1000 | < 100 |  |  |  |  |  | 
CC(=O)N1CC[C@@H](N(C)c2nc(OC[C@@]34CCCN3C[C@H](F)C4)nc3c(F)c(-c4ccc(F)c5sc(N)c(C#N)c45)c(C(F)(F)F)cc23)[C@H]1C (single isomer, unassigned) [Compound 193] | < 100 |  |  | 100 to 1000 |  |  |  |  | < 100 | < 100 | < 100 | < 100 | < 100 |  |  |  |  | 
CCN(c1nc(OC[C@@]23CCCN2C[C@H](F)C3)nc2c(F)c(-c3ccc(F)c4sc(N)c(C#N)c34)c(C(F)(F)F)cc12)[C@H]1CCN(C(=O)N2CC(OC)C2)C1 (atropisomer, axis not shown) [Compound 607] | < 100 | < 100 | < 100 | ≤ 100 | < 100 | < 100 | < 100 |  |  |  |  |  |  |  |  |  |  | 
N#Cc1c(N)sc2c(F)ccc(-c3c(C(F)(F)F)cc4c(N5CCOCC5)nc(OC[C@@]56CCCN5C[C@H](F)C6)nc4c3F)c12 (single isomer, unassigned) [Compound 198] | < 100 |  |  | 100 to 1000 |  |  |  |  | 100 to 1000 | 100 to 1000 | 100 to 1000 | 100 to 1000 | < 100 |  |  |  |  | 
CCC(=O)N1CC[C@@H](N(C)c2nc(OC[C@@]34CCCN3C[C@H](F)C4)nc3c(F)c(-c4ccc(F)c5sc(N)c(C#N)c45)c(C(F)(F)F)cc23)[C@H]1C (atropisomer, axis not shown) [Compound 335] | < 100 |  |  | 100 to 1000 |  |  |  |  |  |  |  |  | < 100 | < 100 | < 100 | < 100 | < 100 | 
CC(=O)N1C[C@H](N(C)c2nc(OC[C@@]34CCCN3C[C@H](F)C4)nc3c(F)c(-c4ccc(F)c5sc(N)c(C#N)c45)c(C(F)(F)F)cc23)C[C@@H]1C [Compound 298] | < 100 |  |  | 100 to 1000 |  |  |  | < 100 |  |  |  |  |  | 100 to 1000 | 100 to 1000 | 100 to 1000 | 100 to 1000 | 

The next lines start with the values.

IC50 (SW620 cells (KRAS G12V); [6]) [nM] | IC50 (SW620 cells (KRAS G12V); [7]) [nM] | IC50 [1, 8] [nM] | IC50 [2] [nM] | IC50 [3, 9] [nM] | IC50 [4, 10] [nM] | IC50 [5, 11] [nM] | IC50 (SW620 cells (KRAS G12V); [12]) [nM] | IC50 [1, 13] [nM] | IC50 [3, 14] [nM] | IC50 [4, 15] [nM] | IC50 [5, 16] [nM] | IC50 (SW620 cells (KRAS G12V); [17]) [nM] | IC50 ([1]; KRAS G12R-GppNHp/RAF1 RBD HTRF) [nM] | IC50 ([3]; KRAS WT-GppNHp/RAF1 RBD HTRF) [nM] | IC50 ([4]; KRAS G12V-GppNHp/RAF1 RBD HTRF) [nM] | IC50 ([5]; KRAS G12D-GppNHp/RAF1 RBD HTRF) [nM] | IC50 (SW620 cells (KRAS G12V); SW620 (KRAS G12V) cells) [nM] | Structure (SMILES)
< 100 | < 100 | < 100 | 100 to 1000 | < 100 | < 100 | < 100 |  |  |  |  |  |  |  |  |  |  |  | C=C(C)C(=O)N1CC[C@H](N(CC)c2nc(OC[C@@]34CCCN3C[C@H](F)C4)nc3c(F)c(-c4ccc(F)c5sc(N)c(C#N)c45)c(C(F)(F)F)cc23)C1 (atropisomer, axis not shown) [Compound 673]
< 100 | < 100 | < 100 | 100 to 1000 | < 100 | < 100 | < 100 |  |  |  |  |  |  |  |  |  |  |  | CC(=O)N1CC[C@H](N(CCF)c2nc(OC[C@@]34CCCN3C[C@H](F)C4)nc3c(F)c(-c4ccc(F)c5sc(N)c(C#N)c45)c(C(F)(F)F)cc23)C1 (atropisomer, axis not shown) [Compound 622]
< 100 | < 100 | < 100 | ≤ 100 | < 100 | < 100 | < 100 |  |  |  |  |  |  |  |  |  |  |  | CCN(c1nc(OC[C@@]23CCCN2C[C@H](F)C3)nc2c(F)c(-c3ccc(F)c4sc(N)c(C#N)c34)c(C(F)(F)F)cc12)[C@H]1CCN(C(=O)C2CN(C(C)=O)C2)C1 (atropisomer, axis not shown) [Compound 638]
< 100 | < 100 | 100 to 1000 | 1000 to 10000 | 100 to 1000 | 100 to 1000 | 100 to 1000 |  |  |  |  |  |  |  |  |  |  |  | CCN(c1nc(OC[C@@H]2C[C@@H](OC)CN2C)nc2c(F)c(-c3ccc(F)c4sc(N)c(C#N)c34)c(C(F)(F)F)cc12)[C@H]1CCN(C(=O)C(C)C)C1 [Compound 706]
 | < 100 | 1000 to 10000 | 1000 to 10000 | 100 to 1000 | 1000 to 10000 | 100 to 1000 |  |  |  |  |  |  |  |  |  |  | < 100 | CCN(c1nc(OC[C@@]23CCCN2C[C@H](F)C3)nc2c(F)c(-c3ccc(F)c4sc(N)c(C#N)c34)c(C(F)(F)F)cc12)[C@@H]1CC(=O)N(C2CC2)C1 (atropisomer, axis not shown) [Compound 703]
